Measured values as given in patent US11117892B2, “Pyrrolo-pyridine derivative compound, method for preparing same, and pharmaceutical composition containing same as active ingredient for prevention or treatment of protein kinase-related diseases” (DAEGU-GYEONGBUK MEDICAL INNOVATION FOUNDATION, priority 2017, dated 2021).

How the values were obtained:
Assay in all cases: scanMAX Kinase assay panel
Assay type in all cases: binding
CHEK2 = CHEK2 (Homo sapiens (Human), UniProt O96017); settings: read-out: % control
In short: (§1)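 scanMAX kinase panel screen. Normalisation: (cpd − pos ctrl)/(neg ctrl − pos ctrl) × 100. Neg ctrl is DMSO (100%); pos ctrl gives 0%.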

IKK-beta = IKK-beta (Homo sapiens (Human), UniProt O14920); settings: read-out: % control
In short: as §1

CSNK1A1 = CSNK1A1 (Homo sapiens (Human), UniProt P48729); settings: read-out: % control
In short: as §1

NEK2 = NEK2 (Homo sapiens (Human), UniProt P51955); settings: read-out: % control
In short: as §1

SRPK2 = SRPK2 (Homo sapiens (Human), UniProt P78362); settings: read-out: % control
In short: as §1

TNNI3K = TNNI3K (Homo sapiens (Human), UniProt Q59H18); settings: read-out: % control
In short: as §1

[1] = biological target: RSK3(Kin.Dom.2-C-terminal) (Homo sapiens (Human), UniProt Q15349); settings: read-out: % control
In short: as §1

CAMK1D = CAMK1D (Homo sapiens (Human), UniProt Q8IU85); settings: read-out: % control
In short: as §1

KIT-autoinhibited = KIT-autoinhibited (Homo sapiens (Human), UniProt P10721); settings: read-out: % control
In short: as §1

FLT3(R834Q) = FLT3(R834Q) (Homo sapiens (Human), UniProt P36888, R834Q); settings: read-out: % control
In short: as §1

FLT3(ITD, F691L) = settings: 1 uM
In short: as §1

[2] = biological target: RPS6KA5(Kin.Dom.1-N-terminal) (Homo sapiens (Human), UniProt O75582); settings: read-out: % control
In short: as §1

IRAK1 = IRAK1 (Homo sapiens (Human), UniProt P51617); settings: read-out: % control
In short: as §1

STK16 = STK16 (Homo sapiens (Human), UniProt O75716); settings: read-out: % control
In short: as §1

MAP4K2 = MAP4K2 (Homo sapiens (Human), UniProt Q12851); settings: read-out: % control
In short: as §1

PCTK3 = PCTK3 (Homo sapiens (Human), UniProt Q07002); settings: read-out: % control
In short: as §1

MYLK = MYLK (Homo sapiens (Human), UniProt Q15746); settings: read-out: % control
In short: as §1

IRAK3 = IRAK3 (Homo sapiens (Human), UniProt Q9Y616); settings: read-out: % control
In short: as §1

ADCK4 = ADCK4 (Homo sapiens (Human), UniProt Q96D53); settings: read-out: % control
In short: as §1

MEK5 = MEK5 (Homo sapiens (Human), UniProt Q13163); settings: read-out: % control
In short: as §1

HIPK3 = HIPK3 (Homo sapiens (Human), UniProt Q9H422); settings: read-out: % control
In short: as §1

[3] = biological target: ABL1(E255K)-phosphorylated (Homo sapiens (Human), UniProt P00519, E255K); settings: read-out: % control
In short: as §1

FGFR4 = FGFR4 (Homo sapiens (Human), UniProt P22455); settings: read-out: % control
In short: as §1

LZK = LZK (Homo sapiens (Human), UniProt O43283); settings: read-out: % control
In short: as §1

ABL1-nonphosphorylated = ABL1-nonphosphorylated (Homo sapiens (Human), UniProt P00519); settings: read-out: % control
In short: as §1

PRKD1 = PRKD1 (Homo sapiens (Human), UniProt Q15139); settings: read-out: % control
In short: as §1

TGFBR2 = TGFBR2 (Homo sapiens (Human), UniProt P37173); settings: read-out: % control
In short: as §1

[4] = biological target: ABL1(F317I)-nonphosphorylated (Homo sapiens (Human), UniProt P00519, F317I); settings: read-out: % control
In short: as §1

FLT3(D835H) = FLT3(D835H) (Homo sapiens (Human), UniProt P36888, D835H); settings: read-out: % control
In short: as §1

EPHB3 = EPHB3 (Homo sapiens (Human), UniProt P54753); settings: read-out: % control
In short: as §1

DCAMKL1 = DCAMKL1 (Homo sapiens (Human), UniProt O15075); settings: read-out: % control
In short: as §1

SNRK = SNRK (Homo sapiens (Human), UniProt Q9NRH2); settings: read-out: % control
In short: as §1

MAP3K15 = MAP3K15 (Homo sapiens (Human), UniProt Q6ZN16); settings: read-out: % control
In short: as §1

p38-beta = p38-beta (Homo sapiens (Human), UniProt Q15759); settings: read-out: % control
In short: as §1

SNARK = SNARK (Homo sapiens (Human), UniProt Q9H093); settings: read-out: % control
In short: as §1

ALK(C1156Y) = ALK(C1156Y) (Homo sapiens (Human), UniProt Q9UM73, C1156Y); settings: read-out: % control
In short: as §1

RET = RET (Homo sapiens (Human), UniProt P07949); settings: read-out: % control
In short: as §1

SRMS = SRMS (Homo sapiens (Human), UniProt Q9H3Y6); settings: read-out: % control
In short: as §1

DAPK2 = DAPK2 (Homo sapiens (Human), UniProt Q9UIK4); settings: read-out: % control
In short: as §1

ABL1(E255K)-phosphorylated, sequence (P00519 whole entry E255K): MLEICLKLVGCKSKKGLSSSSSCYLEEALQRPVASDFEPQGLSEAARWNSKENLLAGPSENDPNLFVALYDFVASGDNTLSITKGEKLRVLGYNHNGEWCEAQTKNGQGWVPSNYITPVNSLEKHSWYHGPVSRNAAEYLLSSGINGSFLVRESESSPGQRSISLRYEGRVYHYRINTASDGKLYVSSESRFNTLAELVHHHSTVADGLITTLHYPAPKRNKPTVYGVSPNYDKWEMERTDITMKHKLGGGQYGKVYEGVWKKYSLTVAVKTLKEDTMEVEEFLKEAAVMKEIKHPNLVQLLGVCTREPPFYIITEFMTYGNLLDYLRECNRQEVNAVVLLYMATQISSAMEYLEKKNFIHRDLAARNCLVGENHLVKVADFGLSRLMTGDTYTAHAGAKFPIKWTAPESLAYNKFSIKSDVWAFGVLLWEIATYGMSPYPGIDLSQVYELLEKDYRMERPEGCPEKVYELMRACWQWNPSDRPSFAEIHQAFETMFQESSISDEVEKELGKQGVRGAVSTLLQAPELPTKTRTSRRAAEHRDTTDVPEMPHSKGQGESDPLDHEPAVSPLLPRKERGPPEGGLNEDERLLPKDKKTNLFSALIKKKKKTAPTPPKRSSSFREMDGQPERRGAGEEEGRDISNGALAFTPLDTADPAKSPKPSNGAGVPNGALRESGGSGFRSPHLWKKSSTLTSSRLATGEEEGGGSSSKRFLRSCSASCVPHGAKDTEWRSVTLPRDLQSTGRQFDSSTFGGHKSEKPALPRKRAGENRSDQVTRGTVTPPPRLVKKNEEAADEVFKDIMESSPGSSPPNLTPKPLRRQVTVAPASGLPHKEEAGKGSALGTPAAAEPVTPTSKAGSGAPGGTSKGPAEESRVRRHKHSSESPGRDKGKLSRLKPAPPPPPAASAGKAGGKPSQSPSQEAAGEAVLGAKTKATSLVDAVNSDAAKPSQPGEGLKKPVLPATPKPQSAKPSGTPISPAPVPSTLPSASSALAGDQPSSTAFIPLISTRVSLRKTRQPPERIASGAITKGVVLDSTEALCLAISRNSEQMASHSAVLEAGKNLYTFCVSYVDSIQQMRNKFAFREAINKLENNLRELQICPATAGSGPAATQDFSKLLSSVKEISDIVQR
CHEK2, sequence (O96017 whole entry): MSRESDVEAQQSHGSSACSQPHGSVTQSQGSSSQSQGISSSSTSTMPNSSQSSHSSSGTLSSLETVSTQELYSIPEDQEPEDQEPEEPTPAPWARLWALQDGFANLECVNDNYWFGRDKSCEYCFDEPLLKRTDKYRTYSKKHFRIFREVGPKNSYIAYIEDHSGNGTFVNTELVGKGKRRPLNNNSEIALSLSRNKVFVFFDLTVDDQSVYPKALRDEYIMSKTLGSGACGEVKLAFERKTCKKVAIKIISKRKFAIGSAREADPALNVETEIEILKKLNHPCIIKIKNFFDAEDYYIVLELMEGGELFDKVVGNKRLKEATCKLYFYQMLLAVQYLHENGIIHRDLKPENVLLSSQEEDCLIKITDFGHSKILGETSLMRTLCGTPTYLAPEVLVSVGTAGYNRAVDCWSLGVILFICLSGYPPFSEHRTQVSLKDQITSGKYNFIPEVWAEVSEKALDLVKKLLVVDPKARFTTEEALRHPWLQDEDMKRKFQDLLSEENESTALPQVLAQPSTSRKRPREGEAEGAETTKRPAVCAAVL
DCAMKL1, sequence (O15075 whole entry, looked up): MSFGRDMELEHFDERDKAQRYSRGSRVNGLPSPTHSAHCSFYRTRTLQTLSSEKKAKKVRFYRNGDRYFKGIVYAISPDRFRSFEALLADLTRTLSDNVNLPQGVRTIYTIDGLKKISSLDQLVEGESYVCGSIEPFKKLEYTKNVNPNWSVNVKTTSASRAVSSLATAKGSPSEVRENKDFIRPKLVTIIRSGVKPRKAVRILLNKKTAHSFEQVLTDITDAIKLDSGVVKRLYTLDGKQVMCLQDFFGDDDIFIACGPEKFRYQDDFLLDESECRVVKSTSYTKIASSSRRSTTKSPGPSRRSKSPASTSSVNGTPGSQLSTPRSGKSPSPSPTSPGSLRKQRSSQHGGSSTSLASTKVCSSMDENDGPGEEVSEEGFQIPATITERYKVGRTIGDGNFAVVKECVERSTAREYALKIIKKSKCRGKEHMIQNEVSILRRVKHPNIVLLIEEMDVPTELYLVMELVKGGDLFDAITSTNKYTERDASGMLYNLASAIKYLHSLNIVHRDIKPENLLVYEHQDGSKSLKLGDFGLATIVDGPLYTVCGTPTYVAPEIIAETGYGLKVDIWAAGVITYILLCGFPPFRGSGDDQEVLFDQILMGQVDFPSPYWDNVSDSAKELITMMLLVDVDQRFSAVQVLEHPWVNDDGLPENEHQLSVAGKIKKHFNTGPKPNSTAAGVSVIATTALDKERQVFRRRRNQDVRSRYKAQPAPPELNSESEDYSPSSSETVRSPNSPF
DAPK2, sequence (Q9UIK4 whole entry): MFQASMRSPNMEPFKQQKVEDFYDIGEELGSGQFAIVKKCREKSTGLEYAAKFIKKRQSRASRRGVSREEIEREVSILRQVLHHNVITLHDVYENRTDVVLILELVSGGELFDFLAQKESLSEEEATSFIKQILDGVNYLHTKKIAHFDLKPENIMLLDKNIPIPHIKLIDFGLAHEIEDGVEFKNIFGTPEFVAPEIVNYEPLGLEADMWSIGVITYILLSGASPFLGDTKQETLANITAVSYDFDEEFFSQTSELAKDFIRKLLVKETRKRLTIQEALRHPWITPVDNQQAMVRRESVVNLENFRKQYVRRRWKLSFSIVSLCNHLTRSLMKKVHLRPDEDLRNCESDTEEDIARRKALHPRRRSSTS
RET, sequence (P07949 29-1114): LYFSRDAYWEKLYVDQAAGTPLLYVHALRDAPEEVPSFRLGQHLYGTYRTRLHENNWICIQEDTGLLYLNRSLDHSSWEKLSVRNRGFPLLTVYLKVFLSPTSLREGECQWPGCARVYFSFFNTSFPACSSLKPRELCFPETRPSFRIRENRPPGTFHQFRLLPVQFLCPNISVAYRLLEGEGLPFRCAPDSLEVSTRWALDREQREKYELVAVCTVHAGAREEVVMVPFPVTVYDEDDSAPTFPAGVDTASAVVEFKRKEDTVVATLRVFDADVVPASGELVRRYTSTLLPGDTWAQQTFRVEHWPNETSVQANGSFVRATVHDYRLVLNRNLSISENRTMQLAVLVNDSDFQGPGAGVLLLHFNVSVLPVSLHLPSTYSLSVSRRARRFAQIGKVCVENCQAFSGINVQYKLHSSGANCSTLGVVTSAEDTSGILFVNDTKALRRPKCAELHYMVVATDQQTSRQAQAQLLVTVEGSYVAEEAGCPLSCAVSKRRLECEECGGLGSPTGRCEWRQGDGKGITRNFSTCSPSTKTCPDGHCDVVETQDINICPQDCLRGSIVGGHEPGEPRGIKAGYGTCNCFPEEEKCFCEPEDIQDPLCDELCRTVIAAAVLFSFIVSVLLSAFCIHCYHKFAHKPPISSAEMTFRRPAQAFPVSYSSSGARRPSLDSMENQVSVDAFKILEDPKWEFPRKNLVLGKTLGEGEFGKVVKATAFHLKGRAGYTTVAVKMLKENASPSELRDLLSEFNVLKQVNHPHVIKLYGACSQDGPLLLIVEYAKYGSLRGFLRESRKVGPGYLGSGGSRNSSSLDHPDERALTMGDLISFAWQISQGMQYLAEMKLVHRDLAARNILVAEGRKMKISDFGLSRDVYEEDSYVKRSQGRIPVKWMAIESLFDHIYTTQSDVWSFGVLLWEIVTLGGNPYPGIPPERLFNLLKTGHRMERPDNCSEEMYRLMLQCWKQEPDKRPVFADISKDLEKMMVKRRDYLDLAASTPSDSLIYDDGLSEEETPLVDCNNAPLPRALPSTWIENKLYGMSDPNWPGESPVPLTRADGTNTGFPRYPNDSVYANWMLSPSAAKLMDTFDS
SRMS, sequence (Q9H3Y6 whole entry): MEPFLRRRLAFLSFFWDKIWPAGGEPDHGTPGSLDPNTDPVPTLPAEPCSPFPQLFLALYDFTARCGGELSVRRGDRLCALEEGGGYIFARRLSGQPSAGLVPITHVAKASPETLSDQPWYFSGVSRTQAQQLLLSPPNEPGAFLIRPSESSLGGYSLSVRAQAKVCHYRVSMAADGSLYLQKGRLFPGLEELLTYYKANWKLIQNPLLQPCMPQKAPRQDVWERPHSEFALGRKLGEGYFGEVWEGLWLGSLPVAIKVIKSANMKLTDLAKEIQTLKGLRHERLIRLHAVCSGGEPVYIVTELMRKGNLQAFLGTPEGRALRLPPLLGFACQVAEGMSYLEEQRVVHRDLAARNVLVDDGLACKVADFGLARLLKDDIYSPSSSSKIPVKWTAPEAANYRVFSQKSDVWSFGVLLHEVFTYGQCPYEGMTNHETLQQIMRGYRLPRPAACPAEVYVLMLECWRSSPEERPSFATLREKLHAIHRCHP
STK16, sequence (O75716 whole entry): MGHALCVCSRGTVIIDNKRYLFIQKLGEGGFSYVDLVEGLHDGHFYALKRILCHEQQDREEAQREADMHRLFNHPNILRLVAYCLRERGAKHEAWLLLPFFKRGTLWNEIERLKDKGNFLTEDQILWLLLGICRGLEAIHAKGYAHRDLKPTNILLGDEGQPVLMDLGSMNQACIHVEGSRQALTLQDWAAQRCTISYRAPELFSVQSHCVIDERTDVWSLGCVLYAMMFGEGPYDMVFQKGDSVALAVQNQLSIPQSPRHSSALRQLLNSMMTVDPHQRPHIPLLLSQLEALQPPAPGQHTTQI
p38-beta, sequence (Q15759 whole entry): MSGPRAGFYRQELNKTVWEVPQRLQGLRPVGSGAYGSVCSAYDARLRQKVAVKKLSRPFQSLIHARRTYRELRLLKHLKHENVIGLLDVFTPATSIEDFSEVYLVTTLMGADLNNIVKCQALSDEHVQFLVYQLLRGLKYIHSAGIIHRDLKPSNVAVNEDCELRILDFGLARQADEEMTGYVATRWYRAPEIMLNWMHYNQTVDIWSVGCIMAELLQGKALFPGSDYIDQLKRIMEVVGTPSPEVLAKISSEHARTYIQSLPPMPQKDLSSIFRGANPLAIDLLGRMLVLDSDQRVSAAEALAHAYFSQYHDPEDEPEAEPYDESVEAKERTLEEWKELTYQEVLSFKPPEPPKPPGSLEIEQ

CCNc1cc(Nc2ccc(C(=O)N3CCC(N4CCOCC4)CC3)cc2OC)nc2[nH]cc(C#N)c12 [Example 18, 4-(ethylamino)-6-((2-methoxy-4-(4-morpholinopiperidine-1-carbonyl)phenyl)amino)-1H-pyrrolo[2,3-b]pyridine-3-carbonitrile]
remaining binding at 1 µM (CHEK2): 4.1% | remaining binding at 1 µM (IKK-beta): 77% | remaining binding at 1 µM (CSNK1A1): 8.2% | remaining binding at 1 µM (NEK2): 100% | remaining binding at 1 µM (SRPK2): 100% | remaining binding at 1 µM (TNNI3K): 91% | remaining binding at 1 µM [1]: 12% | remaining binding at 1 µM (CAMK1D): 31% | remaining binding at 1 µM (KIT-autoinhibited): 66% | remaining binding at 1 µM (FLT3(R834Q)): 92% | % control (FLT3(ITD, F691L)): 46% | remaining binding at 1 µM [2]: 100% | remaining binding at 1 µM (IRAK1): 79% | remaining binding at 1 µM (STK16): 60% | remaining binding at 1 µM (MAP4K2): 61% | remaining binding at 1 µM (PCTK3): 86% | remaining binding at 1 µM (MYLK): 6% | remaining binding at 1 µM (IRAK3): 84% | remaining binding at 1 µM (ADCK4): 100% | remaining binding at 1 µM (MEK5): 77% | remaining binding at 1 µM (HIPK3): 74% | remaining binding at 1 µM [3]: 77% | remaining binding at 1 µM (FGFR4): 80% | remaining binding at 1 µM (LZK): 100% | remaining binding at 1 µM (ABL1-nonphosphorylated): 97% | remaining binding at 1 µM (PRKD1): 14% | remaining binding at 1 µM (TGFBR2): 100% | remaining binding at 1 µM [4]: 89% | remaining binding at 1 µM (FLT3(D835H)): 89% | remaining binding at 1 µM (EPHB3): 93% | remaining binding at 1 µM (DCAMKL1): 85% | remaining binding at 1 µM (SNRK): 100% | remaining binding at 1 µM (MAP3K15): 53% | remaining binding at 1 µM (p38-beta): 77% | remaining binding at 1 µM (SNARK): 57% | remaining binding at 1 µM (ALK(C1156Y)): 2.4% | remaining binding at 1 µM (RET): 100% | remaining binding at 1 µM (SRMS): 80% | remaining binding at 1 µM (DAPK2): 16%

CCNc1cc(Nc2ccc(C(=O)N3CCC(N4CCOCC4)CC3)cc2OC)nc2[nH]cc(C(F)(F)F)c12 [Example 57, (4-((4-(ethylamino)-3-(trifluoromethyl)-1H-pyrrolo[2,3-b]pyridin-6-yl)amino)-3-methoxyphenyl) (4-morpholinopiperidin-1-yl)methanone]
remaining binding at 1 µM (CHEK2): 47% | remaining binding at 1 µM (IKK-beta): 100% | remaining binding at 1 µM (CSNK1A1): 51% | remaining binding at 1 µM (NEK2): 94% | remaining binding at 1 µM (SRPK2): 100% | remaining binding at 1 µM (TNNI3K): 100% | remaining binding at 1 µM [1]: 82% | remaining binding at 1 µM (CAMK1D): 73% | remaining binding at 1 µM (KIT-autoinhibited): 100% | remaining binding at 1 µM (FLT3(R834Q)): 100% | % control (FLT3(ITD, F691L)): 84% | remaining binding at 1 µM [2]: 100% | remaining binding at 1 µM (IRAK1): 100% | remaining binding at 1 µM (STK16): 64% | remaining binding at 1 µM (MAP4K2): 100% | remaining binding at 1 µM (PCTK3): 86% | remaining binding at 1 µM (MYLK): 7.8% | remaining binding at 1 µM (IRAK3): 79% | remaining binding at 1 µM (ADCK4): 75% | remaining binding at 1 µM (MEK5): 99% | remaining binding at 1 µM (HIPK3): 71% | remaining binding at 1 µM [3]: 84% | remaining binding at 1 µM (FGFR4): 92% | remaining binding at 1 µM (LZK): 100% | remaining binding at 1 µM (ABL1-nonphosphorylated): 51% | remaining binding at 1 µM (PRKD1): 73% | remaining binding at 1 µM (TGFBR2): 97% | remaining binding at 1 µM [4]: 96% | remaining binding at 1 µM (FLT3(D835H)): 100% | remaining binding at 1 µM (EPHB3): 85% | remaining binding at 1 µM (DCAMKL1): 86% | remaining binding at 1 µM (SNRK): 100% | remaining binding at 1 µM (MAP3K15): 100% | remaining binding at 1 µM (p38-beta): 76% | remaining binding at 1 µM (SNARK): 100% | remaining binding at 1 µM (ALK(C1156Y)): 3.5% | remaining binding at 1 µM (RET): 100% | remaining binding at 1 µM (SRMS): 96% | remaining binding at 1 µM (DAPK2): 71%
